The numbers were not newly measured in patent publication US20030073837A1, “3-HETEROARYLIDENYL-2-INDOLINONE COMPOUNDS FOR MODULATING PROTEIN KINASE ACTIVITY AND FOR USE IN CANCER CHEMOTHERAPY” (priority 1998, published 2003), which cites them from elsewhere.

The conditions of data set [1]: cited from earlier work.
For data set [2], the system named is metastatic colorectal cancer. Conditions: single agent; cited from earlier work.
For data set [3], the system named is advanced metastatic colorectal cancer. Conditions: cited from earlier work.

Regarding `O=c1[nH]cc(F)c(=O)[nH]1` [fluorouracil, 5-fluoro-2,4 (1H,3H)-pyrimidinedione], the excreted in urine entry in data set [1] (in vivo) is given as “Less than 10%”. Besides, in data set [1] (within 2 hours, intravenous bolus 370 to 720 mg/m^2), the plasma levels entry is “below 1 μM”. In data set [2], the median survival entry is “six” and the response rate result is on record as “about 15%”. In data set [3] (fluorouracil alone 500 mg/m^2), the median survival time is reported as 7.7 months. Further, in data set [3] (fluorouracil alone 500 mg/m^2 daily for 5 days every 28-35 days), the response rate is 10%.
